Results taken from the NIST ThermoML archive (doi:10.1016/j.jct.2018.06.015).

Test: xn = mol fraction of the nth substance listed
Details: 100 kPa, Liquid; for speed of sound: Frequency=3 MHz, Single path-length method; for mass density: Vibrating tube method

CCCCOCCOCCO [3,6-dioxa-1-decanol] + CCCCCCCCO
Details | mass density, 293.15 K [kg/m3] | mass density, 298.15 K [kg/m3] | mass density, 303.15 K [kg/m3] | mass density, 308.15 K [kg/m3] | mass density, 313.15 K [kg/m3] | speed of sound, 293.15 K [m/s] | speed of sound, 298.15 K [m/s] | speed of sound, 303.15 K [m/s] | speed of sound, 308.15 K [m/s] | speed of sound, 313.15 K [m/s]
x1 = 0.0518 | 832.225 | 828.746 | 825.244 | 821.725 | 818.179 | 1364.4 | 1347.4 | 1330.7 | 1313.9 | 1297.4
x1 = 0.1019 | 838.886 | 835.371 | 831.834 | 828.281 | 824.7 | 1363.4 | 1346.4 | 1329.7 | 1313 | 1296.4
x1 = 0.1605 | 846.645 | 843.087 | 839.508 | 835.909 | 832.289 | 1362.8 | 1345.8 | 1329.1 | 1312.5 | 1296
x1 = 0.1994 | 851.754 | 848.167 | 844.558 | 840.932 | 837.284 | 1362.4 | 1345.5 | 1328.8 | 1312.1 | 1295.6
x1 = 0.2503 | 858.438 | 854.812 | 851.169 | 847.507 | 843.826 | 1362.1 | 1345.3 | 1328.5 | 1311.9 | 1295.5
x1 = 0.303 | 865.322 | 861.66 | 857.975 | 854.271 | 850.554 | 1362 | 1345.2 | 1328.5 | 1311.9 | 1295.4
x1 = 0.4013 | 878.059 | 874.317 | 870.565 | 866.793 | 863.012 | 1362.5 | 1345.7 | 1329 | 1312.4 | 1296
x1 = 0.4999 | 890.695 | 886.882 | 883.058 | 879.218 | 875.365 | 1363.2 | 1346.4 | 1329.7 | 1313.1 | 1296.7
x1 = 0.5918 | 902.338 | 898.456 | 894.568 | 890.661 | 886.747 | 1364.5 | 1347.6 | 1330.9 | 1314.3 | 1297.8
x1 = 0.7043 | 916.351 | 912.393 | 908.423 | 904.44 | 900.454 | 1366.7 | 1349.8 | 1333.1 | 1316.5 | 1299.9
x1 = 0.8085 | 929.131 | 925.094 | 921.053 | 916.997 | 912.939 | 1369.4 | 1352.4 | 1335.7 | 1319 | 1302.5
x1 = 0.848 | 933.965 | 929.901 | 925.834 | 921.75 | 917.662 | 1370.8 | 1353.8 | 1336.8 | 1320.1 | 1303.6
x1 = 0.901 | 940.359 | 936.257 | 932.151 | 928.029 | 923.906 | 1373 | 1356 | 1339.2 | 1322.4 | 1305.8
x1 = 0.9501 | 946.262 | 942.124 | 937.981 | 933.818 | 929.657 | 1374.3 | 1357.3 | 1340.4 | 1323.7 | 1307
x1 = 1 | 952.288 | 948.1 | 943.909 | 939.704 | 935.503 | 1378.2 | 1361.3 | 1344.5 | 1326.4 | 1307.7

CCCCOCCOCCO [3,6-dioxa-1-decanol] + CCCCCCO
Details | mass density, 293.15 K [kg/m3] | mass density, 298.15 K [kg/m3] | mass density, 303.15 K [kg/m3] | mass density, 308.15 K [kg/m3] | mass density, 313.15 K [kg/m3] | speed of sound, 293.15 K [m/s] | speed of sound, 298.15 K [m/s] | speed of sound, 303.15 K [m/s] | speed of sound, 308.15 K [m/s] | speed of sound, 313.15 K [m/s]
x1 = 0.0612 | 830.032 | 826.42 | 822.781 | 819.109 | 815.428 | 1323.2 | 1306.7 | 1289.7 | 1273.2 | 1256.6
x1 = 0.1016 | 836.858 | 833.209 | 829.539 | 825.839 | 822.126 | 1325.7 | 1309 | 1292.1 | 1275.4 | 1259.1
x1 = 0.1593 | 846.323 | 842.636 | 838.928 | 835.192 | 831.439 | 1329.1 | 1312.2 | 1295.4 | 1278.6 | 1262.3
x1 = 0.2053 | 853.619 | 849.892 | 846.155 | 842.384 | 838.617 | 1331.8 | 1314.9 | 1298.2 | 1281.3 | 1265
x1 = 0.251 | 860.647 | 856.892 | 853.123 | 849.323 | 845.516 | 1334.4 | 1317.5 | 1301 | 1283.8 | 1267.6
x1 = 0.3095 | 869.401 | 865.605 | 861.792 | 857.954 | 854.105 | 1337.5 | 1320.9 | 1304.2 | 1287.1 | 1271.2
x1 = 0.4054 | 883.079 | 879.224 | 875.359 | 871.465 | 867.564 | 1343.2 | 1326.3 | 1309.8 | 1292.4 | 1276.4
x1 = 0.5021 | 896.077 | 892.169 | 888.244 | 884.294 | 880.34 | 1348.5 | 1331.7 | 1314.9 | 1297.7 | 1281.6
x1 = 0.6049 | 909.164 | 905.192 | 901.21 | 897.205 | 893.199 | 1354.2 | 1337.5 | 1320.8 | 1303.3 | 1287.3
x1 = 0.6982 | 920.378 | 916.352 | 912.316 | 908.259 | 904.202 | 1359.8 | 1342.7 | 1326.1 | 1308.4 | 1292.7
x1 = 0.801 | 931.924 | 927.842 | 923.754 | 919.65 | 915.548 | 1365.5 | 1348.7 | 1331.8 | 1314.2 | 1298.2
x1 = 0.8313 | 935.198 | 931.096 | 926.99 | 922.874 | 918.76 | 1367.2 | 1350.3 | 1333.3 | 1315.8 | 1299.6
x1 = 0.9042 | 942.783 | 938.65 | 934.516 | 930.365 | 926.213 | 1372.5 | 1354.8 | 1338.3 | 1320.2 | 1304.8
x1 = 1 | 952.288 | 948.1 | 943.909 | 939.704 | 935.503 | 1378.2 | 1361.3 | 1344.5 | 1326.4 | 1307.7
